This is an account of results in patent US10287311B2, “Modified fluorinated nucleoside analogues” (priority 2003, dated 2019).

In data set [1] the test system is serum amino transferase levels. Particulars: Gary L. Davis, 2000; cited from earlier work.
Data set [2] relates to HCV replicon system. Particulars: Stuyver et al. 2003; cited from earlier work.
The target of data set [3] is HCV 1b NS5B polymerase, Wild-Type NS5B (Hepatitis C virus genotype 1b, UniProt Q9WMX2).
In data set [4] the test system is HepG2 cells. Briefly: Mitochondria toxicity assay. Type of data set: cell-based. Particulars: 7 days. The protocol:
Fifty microliters of 2× drug dilutions were added per well in a 96 well plate. […] Ribosomal DNA levels were used to determine specific toxicity to mitochondria or generally cytotoxicity. HepG2 cells (5,000 cells/well at 50 μl) were added to the plate. The plate was incubated at 37° C. in a humidified 5% CO2 atmosphere for 7 days. After incubation, the supernatant was removed and stored for lactic acid quantification, and total DNA was extracted from cells as described in the RNeasy 96 handbook (February 1999), pages 22-23. No DNA digestions were performed, therefore total RNA and DNA were extracted. The extracted DNA was amplified and the change in mitochondrial DNA and ribosomal DNA for each sample was determined. The fold difference in mitochondrial DNA normalized for ribosomal DNA relative to control was calculated. Lactic acid quantification was performed by the D-Lactic Acid/L-Lactic acid test kit (Boehringer Mannheim/R-Biopharm/Roche). The total amount of lactic acid produced for each sample was found as well as the fold change in lactic acid production (% of lactic acid/% of rDNA) as described in the manufacturers instructions.

In data set [5] the test system is RSV. Nature of the data set: Antiviral activity, RSV. Particulars: human respiratory syncytial virus. Type of data set: cell-based.
The subject of data set [6] is replicon HCV RNA. Briefly: HCV replicon assay (clone not specified). Particulars: Hepatitis C virus, read-out: EC90 values, range for the replicon clones, range over replicon clones of Table 1.
A short description of data set [7]: Cytotoxicity assay (MTS), all cell lines tested. The data set is classed as cell-based. Particulars: human, bovine, African green monkey, Clone A, Huh7, HepG2, MDBK, PBM, CEM, Vero and MRC-5 cells; summary in text over all cell lines. The protocol: (§1) 50 μl of 2× drug dilutions were added per well in a 96 well plate. Final concentrations of drug ranged from 1 to 100 μM. A “no drug” (media only) control was used to determine the minimum absorbance values and a “cells+media only” control was used for maximum absorbance value. A solvent control was also used. Cells were then added (PBM: 5×10^4 cells/well; CEM: 2.5×10^3 cells/well; Vero, HepG2, Huh-7, and Clone A: 5×10^3 cells/well) and incubated at 37° C. in a humidified 5% CO2 atmosphere for 3-5 days (PBM: 5 days; CEM: 3 days, all others: 4 days). After incubation, 20 μl of MTS dye was added from Cell Titer Aqueous One Solution Cell Proliferation Assay to each well and the plate was re-incubated for 2-4 hours. The absorbance (490 nm) was then read on an ELISA plate reader using the media only/no cell wells as blanks. Percent inhibition was found and used to calculate the CC50.
In contrast is the relative toxicity of 2′-C-methyladenosine.

Data set [8] is described as follows: Cytotoxicity assay (MTS), MDBK. Type of data set: cell-based. Particulars: bovine, MDBK cells.
Data set [9] deals with Human bone marrow cells, BFU-E. Nature of the data set: Bone marrow toxicity assay, BFU-E. Type of data set: cell-based. The procedure: (§2) The culture assays for CFU-GM and BFU-E are performed using a bilayer soft agar or methylcellulose method. Drugs are diluted in tissue culture medium and filtered. After 14 to 18 days at 37° C. in a humidified atmosphere of 5% CO2 in air, colonies of greater than 50 cells are counted using an inverted microscope. The results are presented as the percent inhibition of colony formation in the presence of drug compared to solvent control cultures.

Data set [10] concerns BVDV. Nature of the data set: (BVDV) yield reduction assay. The data set is classed as cell-based, bovine viral diarrhea virus. Particulars: for EC90: Bovine viral diarrhea virus isolates and strains. The procedure: Madin-Darby Bovine Kidney (MDBK) cells were grown in Dulbecco's modified eagle medium supplemented with 10% horse serum and 100 μg/ml penicillin-streptomycin. Cells were seeded in a 96-well plate at 5×10^3 cells/well and incubated for 72h at 37° C. in a humidified 5% CO2 atmosphere. Cells were infected with either cytopathic (NADL strain) or noncytopathic (SD-1 strain) BVDV at a virus dilution of 10-2 and incubated for 45 min. Cell monolayers were washed three times with medium. Fresh medium-containing test compounds in dose response concentrations or ribavirin, as a positive control, were added to cultures and medium containing no drug was added to the no-drug controls. After 72h incubation, supernatant was collected and viral RNA was extracted using the QIAmp Viral RNA Mini Kit (Qiagen, CA). Viral load was determined by Q-RT-PCR using primers specific for either NADL or SD-1 (1).

A short description of data set [11]: Cytotoxicity assay (MTS), Huh7. The data set is classed as cell-based. Particulars: human, Huh7 cells. The protocol: as §1
Data set [12] is described as follows: Cytotoxicity assay (MTS), CloneA. Type of data set: cell-based. Particulars: human, Clone A cells. The procedure:
as §1

The subject of data set [13] is HBV. Nature of the data set: Antiviral activity, HBV. Type of data set: cell-based. Particulars: Hepatitis B virus; HBV.
A short description of data set [14]: Cytotoxicity assay (MTS), HepG2. The data set is classed as cell-based. Particulars: human, HepG2 cells. The procedure:
as §1

In data set [15] the test system is Human bone marrow cells, CFU-GM. Nature of the data set: Bone marrow toxicity assay, CFU-GM. The data set is classed as cell-based. The procedure:
as §2

Read-outs that look alike come from different tables or passages of the source.

Sequence of HCV 1b NS5B polymerase, Wild-Type NS5B (Q9WMX2 2420-3010): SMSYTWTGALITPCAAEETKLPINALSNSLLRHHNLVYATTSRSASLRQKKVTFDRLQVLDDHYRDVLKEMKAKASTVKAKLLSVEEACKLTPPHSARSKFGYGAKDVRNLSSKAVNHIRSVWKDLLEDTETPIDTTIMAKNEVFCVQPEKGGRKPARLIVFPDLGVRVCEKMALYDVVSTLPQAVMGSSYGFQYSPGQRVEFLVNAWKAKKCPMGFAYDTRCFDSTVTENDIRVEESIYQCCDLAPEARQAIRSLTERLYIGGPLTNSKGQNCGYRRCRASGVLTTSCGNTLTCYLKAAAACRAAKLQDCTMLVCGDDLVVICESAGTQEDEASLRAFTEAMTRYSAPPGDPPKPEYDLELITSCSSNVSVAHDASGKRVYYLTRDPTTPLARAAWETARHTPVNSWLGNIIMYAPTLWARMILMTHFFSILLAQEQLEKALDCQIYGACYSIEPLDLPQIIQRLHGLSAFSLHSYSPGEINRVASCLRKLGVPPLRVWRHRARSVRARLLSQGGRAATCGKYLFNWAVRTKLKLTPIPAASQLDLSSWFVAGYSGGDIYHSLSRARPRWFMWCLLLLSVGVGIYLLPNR

Take `NC(=O)c1ncn([C@@H]2O[C@H](CO)[C@@H](O)[C@H]2O)n1` [Ribavirin, 1-β-D-ribofuranosyl-1-1,2,4-triazole-3-carboxamide]: the “patients with serum amino transferase levels reduced to normal” value in [1] is 40%. Moreover, the “specific anti-HCV activity in the HCV replicon system” value in [2] is listed as “does not have specific anti-HCV activity”.

As a reminder, the IC50 is the concentration that inhibits the measured activity by half. For the compound `C[C@@]1(F)[C@H](O)[C@@H](COP(=O)(O)OP(=O)(O)OP(=O)(O)O)O[C@H]1n1ccc(N)nc1=O`, the IC50 in [3] (IC50, Wild-Type NS5B, batch 1) is 1.7 ± 0.4 µM; in [3] (IC50, Wild-Type NS5B, batch 2 and 3), 7.7 ± 1.2 µM; in data set [3] (inhibitory concentration 50%, range, NS5B polymerase assay) it was 1.7 to 7.7 µM.

The EC90 is the point of the concentration-response curve where the effect stands at 90%. By CC50 is commonly meant the concentration giving 50% cytotoxicity. A high value points to better tolerance by the cells. For `C[C@@]1(O)[C@H](O)[C@@H](CO)O[C@H]1n1ccc(N)nc1=O` [2′-C-methylcytidine], the “Lactic Acid Increase” value in data set [4] was “No effect ≥ 33 μM”. The IC50 in data set [4] (Homo sapiens, 168 h, read-out: mtDNA Synthesis (IC50)) was > 25 µM; in data set [9] (Bone marrow cell), 20.1 µM; in [15] (CFU-GM), 13.2 µM. The EC90 in data set [5] is > 100 µM; in data set [6], 6.6 to 37.4 µM; in [10] (BVDVcp), 2 µM; in data set [10] (BVDVncp), 0.5 µM; in data set [13], > 10 µM. The compound further gave a CC50 in data set [7] of 75 to 100 µM. For the same compound, the CC50 at 4 days in [8], in data set [11], in data set [12] and in data set [14] was > 100 µM throughout. In addition, in data set [10], the “activity on HCV surrogate model BVDV (in words)” value is given as “greater activity”.

Take `C[C@@]1(O)[C@H](O)[C@@H](CO)O[C@H]1n1cnc2c(N)ncnc21` [2′-C-methyladenosine]: the figures for the EC90 in [5], in data set [10] (BVDVcp) and in data set [10] (BVDVncp) were > 100 µM, 1.5 µM and 1.2 µM, respectively. Further, the “activity on HCV surrogate model BVDV (in words)” value in [10] was “greater activity”. Moreover, the 50% cytotoxic concentration (CC50) at 4 days came to 30 µM in [11], 37 µM in [12] and 58 µM in [14].

Regarding `Cc1cn([C@H]2C[C@H](N=[N+]=[N-])[C@@H](CO)O2)c(=O)[nH]c1=O` [AZT], the IC50 amounted to 0.08 µM in [9] and 0.95 µM in data set [15].
